Source: paper PMC10303271, “Synthesis and Receptor Binding Studies of α5 GABAAR Selective Novel Imidazodiazepines Targeted for Psychiatric and Cognitive Disorders” (Molecules, 2023)
Where two headings read alike, the source gives them in different places.

Experiments:
[1] = target: T1, 5-HT1B (Homo sapiens, UniProt P28222); test: PDSP primary binding 5-HT1B; conditions: 1.5 h; primary binding, 10,000 nM; last figure of the line = mean of the 4 before it; read-out: 5-HT1B, PDSP raw data, mean
T1 construct: purchased NIMH Psychoactive Drug Screening Program (PDSP)
T1 sequence (P28222 whole entry): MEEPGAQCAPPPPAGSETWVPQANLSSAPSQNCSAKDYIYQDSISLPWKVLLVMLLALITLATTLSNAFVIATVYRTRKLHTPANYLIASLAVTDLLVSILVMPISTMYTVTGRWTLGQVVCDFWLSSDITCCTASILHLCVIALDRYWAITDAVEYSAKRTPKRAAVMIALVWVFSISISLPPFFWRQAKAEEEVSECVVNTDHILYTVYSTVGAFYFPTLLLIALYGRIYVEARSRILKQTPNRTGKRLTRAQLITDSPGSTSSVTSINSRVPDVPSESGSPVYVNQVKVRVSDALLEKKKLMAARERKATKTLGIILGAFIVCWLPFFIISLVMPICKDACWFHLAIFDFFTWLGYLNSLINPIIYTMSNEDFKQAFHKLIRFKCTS
Description: (§1) To determine if any off-target receptor-binding effects are present, all the novel ligands were sent to the National Institute of Mental Health (NIMH), Psychoactive Drug Screening Program (PDSP). The ligands were screened over a panel of 47 receptors, ion channels, and transporters to determine any other possible interactions with […]. The hERG-binding was also determined. […] No binding of the test compounds to calcium channels was observed. […] It is necessary to screen the compounds for hERG-binding during the early process of drug discovery. The unintentional binding of many drugs to hERG can cause blockade of hERG K+ channels in the heart, which can cause many side effects including cardiac arrhythmias and sudden death. […] All of the α5 imidazodiazepines were tested for hERG-binding.
(§2) The NIMH PDSP assay protocol book [https://kidbdev.med.unc.edu/databases/PDSP%20Protocols%20II%202013-03-28.pdf accessed on 23 April 2023]. describes the protocols for primary and secondary radio-ligand binding assays. These assays were carried out in a final volume of 125 µL per well in the appropriate binding buffer.
(§3) The binding of a ligand to a receptor, ion channel, or transporter was determined in the […] of 10 µM of the appropriate reference compound. […] Plates were incubated in the dark for 90 min at rt, and the reactions were stopped by vacuum filtration onto 0.3% polyethyleneimine (PEI) soaked 96-well filter mats using a 96-well Filtermateharvester. This was followed by three washes with cold PBS buffer. Radioactivity was then counted on a Microbeta counter. Nonlinear regression was used to analyze the data with N = 6 replicates.

[2] = test system: AMPA; test: PDSP primary binding AMPA; conditions: primary binding, 10,000 nM; last figure of the line = mean of the 4 before it
Description: as §1, §2, §3

[3] = target: T2, NTS1 (Homo sapiens, UniProt P30989); test: PDSP primary binding NTS1; conditions: primary binding, 10,000 nM; last figure of the line = mean of the 4 before it; read-out: NTS1, PDSP raw data, mean
T2 construct: purchased NIMH Psychoactive Drug Screening Program (PDSP)
T2 sequence (P30989 whole entry): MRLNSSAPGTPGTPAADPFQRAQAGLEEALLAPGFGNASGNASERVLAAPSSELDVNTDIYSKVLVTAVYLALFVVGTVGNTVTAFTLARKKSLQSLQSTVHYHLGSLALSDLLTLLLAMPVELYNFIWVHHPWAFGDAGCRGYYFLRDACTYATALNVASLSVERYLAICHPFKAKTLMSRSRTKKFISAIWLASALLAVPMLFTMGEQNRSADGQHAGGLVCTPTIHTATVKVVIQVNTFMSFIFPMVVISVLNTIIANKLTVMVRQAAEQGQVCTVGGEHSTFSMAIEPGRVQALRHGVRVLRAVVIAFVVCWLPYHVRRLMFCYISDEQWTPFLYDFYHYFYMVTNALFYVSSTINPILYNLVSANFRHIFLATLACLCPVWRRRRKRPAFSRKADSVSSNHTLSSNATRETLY
Description: as §1, §2, §3

[4] = target: kappa opioid receptors (KOR) (Homo sapiens, UniProt P41145); test: PDSP radioligand binding at KOR; conditions: for inhibition at 10 µM: 1.5 h
kappa opioid receptors (KOR), sequence (P41145 whole entry): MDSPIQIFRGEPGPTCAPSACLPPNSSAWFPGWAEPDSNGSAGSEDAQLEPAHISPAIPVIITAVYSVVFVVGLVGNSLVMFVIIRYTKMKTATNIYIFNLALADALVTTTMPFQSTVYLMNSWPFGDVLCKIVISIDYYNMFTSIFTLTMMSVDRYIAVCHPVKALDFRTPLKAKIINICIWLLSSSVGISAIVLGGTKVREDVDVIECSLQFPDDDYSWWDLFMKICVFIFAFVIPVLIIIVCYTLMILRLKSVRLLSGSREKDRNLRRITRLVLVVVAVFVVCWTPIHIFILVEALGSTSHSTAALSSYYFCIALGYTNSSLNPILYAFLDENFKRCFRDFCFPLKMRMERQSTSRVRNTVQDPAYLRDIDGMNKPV
From the text: Opioid receptors are a family of inhibitory G-coupled protein receptors where opioids act as the ligand. The kappa opioid receptors (KOR), µ and δ opioid receptors (MOR and DOR), and nociception opioid receptor (NOP) fall under the family of opioids receptors. It has been reported that oxadiazole imidazodiazepines can mediate analgesic and anti-inflammatory properties mediated also by the κ opioid receptor (KOR). The binding at KOR is usually silent. The affinities of the test compounds for KOR, DOR, and MOR were determined using radioligand binding assays at a screening concentration of 10,000 nM in collaboration with the National Institute of Mental Health’s Psychoactive Drug Screening Program (PDSP), as mentioned before. Concentration-dependent experiments were conducted to determine Ki values for the compounds that exceeded more than 50% radioligand displacement in primary binding assays.
as §2, §3

[5] = target: T3, H3 (Homo sapiens, UniProt Q9Y5N1); test: PDSP primary binding H3; conditions: primary binding, 10,000 nM; last figure of the line = mean of the 4 before it; read-out: H3, PDSP raw data, mean
T3 construct: purchased NIMH Psychoactive Drug Screening Program (PDSP)
T3 sequence (Q9Y5N1 whole entry): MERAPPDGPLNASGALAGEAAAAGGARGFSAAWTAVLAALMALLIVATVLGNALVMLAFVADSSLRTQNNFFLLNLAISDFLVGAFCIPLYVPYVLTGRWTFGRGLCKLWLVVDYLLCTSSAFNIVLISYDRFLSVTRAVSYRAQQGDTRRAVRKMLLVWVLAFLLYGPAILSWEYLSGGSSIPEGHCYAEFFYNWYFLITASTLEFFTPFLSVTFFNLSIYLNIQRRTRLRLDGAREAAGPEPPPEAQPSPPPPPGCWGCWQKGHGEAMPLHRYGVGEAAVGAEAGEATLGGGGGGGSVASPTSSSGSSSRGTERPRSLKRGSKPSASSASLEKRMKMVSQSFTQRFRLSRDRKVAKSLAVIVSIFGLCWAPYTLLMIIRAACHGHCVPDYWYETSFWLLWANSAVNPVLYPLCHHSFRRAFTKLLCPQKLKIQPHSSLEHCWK
Description: as §1, §2, §3

[6] = target: T4, H1 (Homo sapiens, UniProt P35367); test: PDSP primary binding H1; conditions: primary binding, 10,000 nM; last figure of the line = mean of the 4 before it; read-out: H1, PDSP raw data, mean
T4 construct: purchased NIMH Psychoactive Drug Screening Program (PDSP)
T4 sequence (P35367 whole entry): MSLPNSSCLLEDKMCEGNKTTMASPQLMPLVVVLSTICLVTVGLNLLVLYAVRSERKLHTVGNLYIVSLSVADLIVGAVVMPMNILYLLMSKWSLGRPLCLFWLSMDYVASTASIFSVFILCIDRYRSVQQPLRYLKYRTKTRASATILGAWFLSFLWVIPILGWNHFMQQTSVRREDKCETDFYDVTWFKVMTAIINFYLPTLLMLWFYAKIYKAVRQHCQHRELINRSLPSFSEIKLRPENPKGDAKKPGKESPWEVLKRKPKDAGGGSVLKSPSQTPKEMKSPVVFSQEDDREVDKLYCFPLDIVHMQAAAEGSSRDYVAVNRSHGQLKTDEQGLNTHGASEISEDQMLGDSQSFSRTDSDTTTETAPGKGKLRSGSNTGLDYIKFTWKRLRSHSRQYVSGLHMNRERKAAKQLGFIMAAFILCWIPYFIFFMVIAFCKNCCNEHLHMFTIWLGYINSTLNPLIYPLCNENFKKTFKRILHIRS
Description: as §1, §2, §3

[7] = target: T5, NET (Homo sapiens, UniProt P23975); test: PDSP primary binding NET; conditions: primary binding, 10,000 nM; last figure of the line = mean of the 4 before it; read-out: NET, PDSP raw data, mean
T5 construct: purchased NIMH Psychoactive Drug Screening Program (PDSP)
T5 sequence (P23975 whole entry): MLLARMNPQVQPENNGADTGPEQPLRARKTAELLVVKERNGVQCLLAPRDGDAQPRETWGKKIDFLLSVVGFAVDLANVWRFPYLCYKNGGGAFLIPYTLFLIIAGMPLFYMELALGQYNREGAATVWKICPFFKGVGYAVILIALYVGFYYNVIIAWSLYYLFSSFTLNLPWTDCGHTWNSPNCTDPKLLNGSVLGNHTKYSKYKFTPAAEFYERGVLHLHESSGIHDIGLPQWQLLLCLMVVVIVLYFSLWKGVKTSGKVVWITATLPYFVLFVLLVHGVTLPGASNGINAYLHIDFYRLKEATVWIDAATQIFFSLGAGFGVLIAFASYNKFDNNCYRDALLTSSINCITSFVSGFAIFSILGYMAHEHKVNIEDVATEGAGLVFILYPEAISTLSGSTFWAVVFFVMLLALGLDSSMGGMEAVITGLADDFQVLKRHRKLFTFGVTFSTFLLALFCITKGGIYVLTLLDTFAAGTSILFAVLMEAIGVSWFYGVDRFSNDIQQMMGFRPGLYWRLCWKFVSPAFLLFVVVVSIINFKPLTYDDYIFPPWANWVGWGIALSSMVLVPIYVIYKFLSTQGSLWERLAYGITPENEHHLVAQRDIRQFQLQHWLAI
Description: as §1, §2, §3

[8] = target: T6, D4 (Homo sapiens, UniProt P21917); test: PDSP primary binding D4; conditions: 1.5 h; primary binding, 10,000 nM; last figure of the line = mean of the 4 before it; read-out: D4, PDSP raw data, mean
T6 construct: purchased NIMH Psychoactive Drug Screening Program (PDSP)
T6 sequence (P21917 1-419): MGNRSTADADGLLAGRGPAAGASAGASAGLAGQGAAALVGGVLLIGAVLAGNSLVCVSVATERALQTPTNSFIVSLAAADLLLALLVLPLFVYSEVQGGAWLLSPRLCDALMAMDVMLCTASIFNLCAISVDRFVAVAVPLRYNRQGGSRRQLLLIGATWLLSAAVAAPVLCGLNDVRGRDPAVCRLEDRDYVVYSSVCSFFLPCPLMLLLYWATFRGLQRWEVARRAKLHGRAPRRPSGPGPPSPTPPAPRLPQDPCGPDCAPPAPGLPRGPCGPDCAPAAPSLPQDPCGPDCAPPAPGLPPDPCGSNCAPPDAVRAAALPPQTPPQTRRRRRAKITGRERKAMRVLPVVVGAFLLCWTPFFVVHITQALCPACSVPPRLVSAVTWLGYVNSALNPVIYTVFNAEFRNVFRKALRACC
Description: as §1, §2, §3

[9] = target: peripheral benzodiazepine receptors (PBR) (Rattus norvegicus, UniProt P16257); test: PDSP radioligand binding at PBR; conditions: 1.5 h, primary binding, 10,000 nM; last figure of the line = mean of the 4 before it; some tables list PBR twice; read-out: PBR, PDSP raw data, mean
peripheral benzodiazepine receptors (PBR), sequence (P16257 whole entry): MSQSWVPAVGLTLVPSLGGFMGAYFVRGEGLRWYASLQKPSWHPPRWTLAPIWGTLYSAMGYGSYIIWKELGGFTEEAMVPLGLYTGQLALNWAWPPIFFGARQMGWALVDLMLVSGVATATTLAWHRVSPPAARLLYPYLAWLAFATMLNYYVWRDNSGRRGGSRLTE
From the text: The compounds were also screened at PDSP to determine any binding with peripheral benzodiazepine receptors (PBR). A number of biological processes are associated with PBR. The most prevalent are transportation of anions for mitochondrial transmembrane potential, biosynthesis of heme, regulation of neurological damage, proliferation, cell death (apoptosis), as well as regulation of steroidogenesis. The test compounds were screened in the primary binding assay to determine the % inhibition at PBR. […] These compounds were then subjected to a secondary screening to determine the Ki (nM) value for PBR receptors.
as §2, §3

[10] = test system: NR2B; test: PDSP primary binding NR2B; conditions: primary binding, 10,000 nM; last figure of the line = mean of the 4 before it
Description: as §1, §2, §3

[11] = target: T7, Alpha3Beta4 (Rattus norvegicus, UniProt P04757+P12392); test: PDSP primary binding Alpha3Beta4; conditions: primary binding, 10,000 nM; last figure of the line = mean of the 4 before it; read-out: Alpha3Beta4, PDSP raw data, mean
T7 construct: purchased NIMH Psychoactive Drug Screening Program (PDSP)
T7 sequence (P04757 26-499): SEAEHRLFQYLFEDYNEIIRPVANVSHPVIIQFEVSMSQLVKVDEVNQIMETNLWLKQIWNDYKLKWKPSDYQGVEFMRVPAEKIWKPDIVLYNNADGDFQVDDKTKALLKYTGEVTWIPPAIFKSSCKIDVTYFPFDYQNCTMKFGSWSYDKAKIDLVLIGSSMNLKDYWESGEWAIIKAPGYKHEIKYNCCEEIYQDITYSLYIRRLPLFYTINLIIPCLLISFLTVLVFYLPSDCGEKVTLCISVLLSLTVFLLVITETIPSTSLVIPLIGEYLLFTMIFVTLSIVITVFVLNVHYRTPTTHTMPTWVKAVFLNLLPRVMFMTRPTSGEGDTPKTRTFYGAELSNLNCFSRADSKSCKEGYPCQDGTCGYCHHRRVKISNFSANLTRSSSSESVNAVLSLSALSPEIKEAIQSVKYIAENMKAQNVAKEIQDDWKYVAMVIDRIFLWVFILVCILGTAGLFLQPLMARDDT
T7 sequence (P12392 21-495): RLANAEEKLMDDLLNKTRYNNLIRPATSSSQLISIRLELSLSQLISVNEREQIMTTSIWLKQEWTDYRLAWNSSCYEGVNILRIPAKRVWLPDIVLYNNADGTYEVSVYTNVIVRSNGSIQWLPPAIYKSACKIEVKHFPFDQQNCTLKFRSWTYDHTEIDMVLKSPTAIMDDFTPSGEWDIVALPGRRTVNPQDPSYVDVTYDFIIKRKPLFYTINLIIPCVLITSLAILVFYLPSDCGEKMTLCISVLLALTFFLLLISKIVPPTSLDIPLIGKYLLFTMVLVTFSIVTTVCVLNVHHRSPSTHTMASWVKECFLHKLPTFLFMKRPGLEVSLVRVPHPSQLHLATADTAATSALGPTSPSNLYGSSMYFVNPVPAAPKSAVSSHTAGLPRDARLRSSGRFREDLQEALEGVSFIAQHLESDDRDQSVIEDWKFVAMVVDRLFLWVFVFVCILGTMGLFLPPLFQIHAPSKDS
Description: as §1, §2, §3

[12] = test system: Sigma 2; test: PDSP primary binding Sigma 2; conditions: primary binding, 10,000 nM; last figure of the line = mean of the 4 before it
Description: as §1, §2, §3

[13] = target: T8, V1A (Homo sapiens, UniProt P37288); test: PDSP primary binding V1A; conditions: primary binding, 10,000 nM; last figure of the line = mean of the 4 before it; read-out: V1A, PDSP raw data, mean
T8 construct: purchased NIMH Psychoactive Drug Screening Program (PDSP)
T8 sequence (P37288 whole entry): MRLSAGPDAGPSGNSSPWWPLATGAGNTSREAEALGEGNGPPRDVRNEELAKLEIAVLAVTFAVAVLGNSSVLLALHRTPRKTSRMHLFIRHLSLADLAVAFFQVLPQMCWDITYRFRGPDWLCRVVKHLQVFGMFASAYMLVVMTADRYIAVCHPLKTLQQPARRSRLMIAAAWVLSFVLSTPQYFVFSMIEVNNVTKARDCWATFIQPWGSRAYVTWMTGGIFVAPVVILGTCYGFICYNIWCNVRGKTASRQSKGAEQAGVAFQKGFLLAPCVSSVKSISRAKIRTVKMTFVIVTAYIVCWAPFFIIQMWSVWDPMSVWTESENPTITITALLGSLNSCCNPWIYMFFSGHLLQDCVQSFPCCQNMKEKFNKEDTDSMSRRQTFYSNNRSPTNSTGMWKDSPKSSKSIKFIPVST
Description: as §1, §2, §3

[14] = at 10,000 nM, N = 5, [3H]-U69593 0.83 nM, read-out: Primary Binding %KOR
[15] = primary binding, 10,000 nM, last figure of the line = mean of the 4 before it, read-out: KOR, PDSP raw data, mean

Compound | inhibition at 10 µM [1] [%] | AMPA, PDSP raw data, mean [2] [%] | inhibition at 10 µM [3] [%] | inhibition at 10 µM [4, 14] [%] | inhibition at 10 µM [4, 15] [%] | Ki ([4]; secondary screening, N = 2, read-out: KOR (Ki)) [nM] | inhibition at 10 µM [5] [%] | inhibition at 10 µM [6] [%] | inhibition at 10 µM [7] [%] | inhibition at 10 µM [8] [%] | inhibition at 10 µM [9] [%] | NR2B, PDSP raw data, mean [10] [%] | inhibition at 10 µM [11] [%] | Sigma 2, PDSP raw data, mean [12] [%] | inhibition at 10 µM [13] [%] | Ki [4] [nM]
C[C@H]1N=C(c2ccccc2F)c2cc(-c3ccccc3)ccc2-n2cnc(C(=O)N(C)C)c21 [Compound 5, (R)-6-(2′-Fluorophenyl)-N,N,4-trimethyl-8-phenyl-4H-benzo[f]imidazo[1,5-a][1,4]diazepine-3-carboxamide] | 11.8 | 7.77 | -16.7 | 53.6 ± 7.24 | 53.6 | 2140 ± 311 | 5.94 | -10.4 | -6 | -4.45 | 22.3 | 3.79 | -0.77 | 43.63 | 15.6 | 
C#Cc1ccc2c(c1)C(c1ccccc1Cl)=N[C@H](C)c1c(C(=O)NC)ncn1-2 [Compound 21, (R)-6-(2′-Chlorophenyl)-8-ethynyl-N,4-dimethyl-4H-benzo[f]imidazo[1,5-a][1,4]diazepine-3-carboxamide] | -0.39 | -31.95 | -25.2 | 69.6 ± 6.01 | 69.6 |  | 4.81 | -9.7 | -2.45 | 2.12 | 5.68 | -8.82 | 11.3 | 1.04 | 35.1 | 660 ± 159
C#Cc1ccc2c(c1)C(c1ccccn1)=N[C@@H](C)c1c(C(=O)NC)ncn1-2 [Compound 23, (S)-8-Ethynyl-N,4-dimethyl-6-(pyridin-2′-yl)-4H-benzo[f]imidazo[1,5-a][1,4]diazepine-3-carboxamide] | -3.82 | -17.23 | -5.89 | 26.9 ± 6.21 | 26.9 |  | -12.8 | -2.54 | 2.62 | 3.79 | 34.9 | -22.69 | 1.99 | 8.85 | 25.4 | 
